# Measured values: US20220062268A1, “PHARMACEUTICAL COMPOSITION FOR THE TREATMENT OF PARKINSON'S DISEASE” (Teva Pharmaceuticals International GmbH, priority 2014, published 2022)
# “Also recorded” adds a separate entry of the source. Read-outs that look alike come from different tables or passages of the source.
# What was measured:
# Parkinson models = settings: cited from earlier work
# [1] = tested on: MPTP monkey model of Parkinson's disease; test: MPTP monkey model of Parkinson's disease: tremor and Good ON; format: in vivo, Macaca fascicularis; settings: MPTP macaques; DP-102 versus same dose of L-DOPA; tremor score summed over 3 hours post dose; FIG. 1
# Description: Macaques (Macaca fascicularis) were rendered parkinsonian by repeated daily injections of MPTP hydrochloride (0.2 mg/kg, i.v.) until parkinsonian signs appeared. The degree of parkinsonism was assessed using a validated parkinsonian macaque clinical scale which rates the following symptoms of parkinsonian disability: tremor (0-3), variations in the general level of activity (0-3), body posture (flexion of spine; 0-3), vocalization (0-2), freezing (0-2), frequency of arm movements (reaching for food, 0-3 for each upper limb), and rigidity (0-3 for each upper limb).
# The maximum parkinsonian disability score was 25. MPTP administration was stopped when a score of 6 was reached on the above scale (usually day 13-17). The macaques were left untreated, for a minimum of 6 weeks, until their parkinsonism became stable.
# This study assessed the test item in a within-subject design with an intra-individually escalating dosage regimen.
# Eight animals were randomly assigned to one of two treatment sequence groups (1: AB, 2: BA). […]
# Tremor was assessed for 3 hours post L-DOPA administration for 10 minutes every 30 minutes, by post hoc analysis of video recordings by a trained assessor blinded to the study treatments. […]
# The anti-parkinsonian action was evaluated based upon the “ON” state of the animals. […]
# striatal dopamine = settings: compared to L-DOPA, cited from earlier work
# [2] = neutral pH; cited from earlier work
# late Parkinson's disease = settings: cited from earlier work
compound,measurement,setting,value
"[2H]C([2H])(c1ccc(O)c(O)c1)[C@]([2H])(N)C(=O)O [DP-102, L-2-Amino-2,3,3-trideutero-3-(3,4-dihydroxyphenyl) propionic acid]",equi-effective dose compared to L-DOPA,Parkinson models; in vivo,about 60%
same,motor activity,"Parkinson models; several Parkinson models, compared to L-DOPA",improved motor activity compared to L-DOPA
same,tremor in relation to Good ON,[1],less tremor at more Good ON
same,striatal dopamine levels,"striatal dopamine; listed as α,β,β-D3-L-DOPA",higher longer-lasting striatal dopamine levels than L-DOPA; also recorded: increase and prolong the output of striatal dopamine significantly more than L-DOPA
"N[C@@H](Cc1ccc(O)c(O)c1)C(=O)O [L-DOPA, (2S)-2-amino-3-(3,4-dihydroxyphenyl)propanoic acid, reference compound]",solubility,[2],poorly dissolved at neutral pH
same,tremor in relation to Good ON,[1],higher or observed at lower Good ON levels
CN1CCc2cccc3c2[C@H]1Cc1ccc(O)c(O)c1-3 [apomorphine],dose of oral L-DOPA under infused apomorphine,"late Parkinson's disease; daily dose of infused apomorphine 72.00±21.38 mg, reduced from 989.4±420.1 mg/day (Ruiz et al.)",663.8 ± 403.2 mg/day
same,reduction of L-DOPA,late Parkinson's disease; mean daily apomorphine dose of 75.2 mg (Katzenschlager et al.),55%
"[2H][C@@H](c1ccc(O)c(O)c1)[C@]([2H])(N)C(=O)O [α,β-D2-L-DOPA, S/S-2-amino-2,3-dideutero-3-(3,4-dihydroxyphenyl) propionic acid]",striatal dopamine levels,striatal dopamine,increase and prolong the output of striatal dopamine significantly more than L-DOPA; also recorded: highest striatal dopamine concentrations
